Measurements published in patent US20040077540A1, “Compositions and methods for modulating physiology of epithelial junctional adhesion molecules for enhanced mucosal delivery of therapeutic compounds” (Nastech Pharmaceutical Company Inc., priority 2002, published 2004).
Read-outs that look alike come from different tables or passages of the source. Where a SMILES comes first, the peptide text is derived from it. Where no end group is shown, it is not given here.

Tests used:
[1] = MTT assay, viability of mucosal epithelial tissue; format: cell-based; parameters: concentration or dose not given beside the values; conditions: human, EpiAirway™ units (mucosal epithelial tissue)
Method: MTT is a cell-permeable tetrazolium salt which is reduced by mitochondrial dehydrogenase activity to an insoluble colored formazan by viable cells with intact mitochondrial function or by nonmitochondrial NAD(P)H dehydrogenase activity from cells capable of generating a respiratory burst. […] We have employed a MTT reagent kit prepared by MatTek Corp for their units in order to assess viability.
A. The MTT reagent is supplied as a concentrate and is diluted into a proprietary DMEM-based diluent on the day viability is to be assayed (typically the afternoon of the day in which permeation kinetics and TER were determined in the morning). The final MTT concentration is 1 mg/mL
B. The final MTT solution is added to wells of a 24-well microplate at a volume of 300 μL per well. As has been noted above, this volume is sufficient to contact the membranes of the EpiAirway™ units but imposes no significant positive hydrostatic pressure on the cells.
C. The units are removed from the 24-well plate in which they were placed after TER measurements, and after removing any excess liquid from the exterior surface of the units, they are transferred to the plate containing MTT reagent. The units in the plate are then placed in an incubator at 37° C. in an atmosphere of 5% CO2 in air for 3 hours.
D. At the end of the 3-hour incubation, the units containing viable cells will have turned visibly purple. The insoluble formazan must be extracted from the cells in their units to quantitate the extent of MTT reduction. Extraction of the formazan is accomplished by transferring the units to a 24-well microplate containing 2 mL extractant solution per well, after removing excess liquid from the exterior surface of the units as before. This volume is sufficient to completely cover both the membrane and the apical surface of the units. Extraction is allowed to proceed overnight at room temperature in a light-tight chamber. MTT extractants traditionally contain high concentrations of detergent, and destroy the cells.
E. At the end of the extraction, the fluid from within each unit and the fluid in its surrounding well are combined and transferred to a tube for subsequent aliquotting into a 96-well microplate (200 μL aliquots are optimal) and determination of absorbance at 570 nm on a VMax multiwell microplate spectrophotometer. […] The “blank” for the determination of formazan absorbance is a 200 μL aliquot of extractant to which no unit had been exposed. This absorbance value is assumed to constitute zero viability.
F. Two units from each kit of 24 EpiAirway™ units are left untreated during determination of permeation kinetics and TER. These units are employed as the positive control for 100% cell viability. In all the studies conducted, there was no statistically significant difference in the viability of the cells in these untreated cells compared to viability of cells in control units which had been sham treated for permeation kinetics and on which TER determinations had been performed. The absorbance of all units treated with test formulations is assumed to be linearly proportional to the percent viability of the cells in the units at the time of the incubation with MTT. It should be noted that this assay is carried out typically no sooner than four hours after introduction of the test material to the apical surface, and subsequent to rinsing of the apical surface of the units during TER determination.
The MTT assays were performed using MTT-100, MatTek kits. […] of the MTT solution was added into each well. Tissue inserts were gently rinsed with clean PBS and placed in the MTT solution. The samples were incubated at 37° C. for 3 hours. After incubation the cell culture inserts were then immersed with 2.0 mL of the extractant solution per well to completely cover each insert. The extraction plate was covered and sealed to reduce evaporation. Extraction proceeds overnight at RT in the dark. […]

[2] = test system: EpiAirway™ units (mucosal epithelial tissue); test: LDH assay, cytolysis of EpiAirway units; format: cell-based
Source text: While measurement of mitochondrial reductase activity by MTT reduction is a sensitive probe of cell viability, the assay necessarily destroys the cells and therefore can be carried out only at the end of each study. When cells undergo necrotic lysis, their cytotosolic contents are spilled into the surrounding medium, and cytosolic enzymes such as lactate dehydrogenase (LDH) can be detected in this medium. An assay for LDH in the medium can be performed on samples of medium removed at each time point of the two-hour determination of permeation kinetics. […] A. The recommended LDH assay for evaluating cytolysis of the EpiAirway™ units is based on conversion of lactate to pyruvate with generation of NADH from NAD. […] The formazan formed from reduction of INT is soluble, so that the entire assay for LDH activity can be carried out in a homogenous aqueous medium containing lactate, NAD, diaphorase, and INT. B. The assay for LDH activity is carried out on 50 μL aliquots from samples of “supernatant” medium surrounding an EpiAirway™ unit and collected at each time point. These samples were either stored for no longer than 24 h in the refrigerator or were thawed after being frozen within a few hours after collection. […] The aliquots are all transferred to a 96 well microplate. C. […] Thus, within experimental error, these sham-treated units show no cytolysis of the epithelial cells over the time course of the permeation kinetics measurements. D. […] This freeze-thaw cycle effectively lyses the cells and releases their cytosolic contents, including LDH, into the supernatant medium. […] E. To each well containing an aliquot of supernatant medium, a 50 μL aliquot of the LDH assay reagent is added. […] F. The reactions are terminated by addition of a “stop” solution of 1 M acetic acid, and within one hour of addition of the stop solution, the absorbance of the plate is determined at 490 nm. G.

[3] = test system: ciliary beating frequency; conditions: cited from earlier work
[4] = intraduodenal, rats, with 1% (w/v) saline dispersion of polycarbophil vs aqueous solution without polymer; cited from earlier work
[5] = test system: aminopeptidases; conditions: cited from earlier work
[6] = aqueous solution at physiologic pH; cited from earlier work
[7] = test system: ciliary function in epithelial cell cultures; conditions: cited from earlier work
[8] = formulations comprising the permeabilizing peptide, read-out: MTT assay results (viability)
[9] = formulations comprising the permeabilizing peptide

| Compound | viability [1, 8] [%] | toxic effects on viability of mucosal epithelial tissue, LDH assay [2, 9] | further results |
| --- | --- | --- | --- |
| DIYSTLLGLP [NP-41] | > 80 | no significant adverse effects | – |
| CCO [ethanol] | – | – | concentration reducing the in vitro ciliary beating frequency [3]: greater than 2% |
| EDTGTYTCM [NP-8] | – | – | viability [1]: > 80%; toxic effects on viability of mucosal epithelial tissue, LDH assay [2]: no significant toxic effects |
| NIIQDFYNPL [NP-31] | – | – | viability [1]: > 80%; toxic effects on viability of mucosal epithelial tissue, LDH assay [2]: no significant adverse effects |
| VPDSMKFEIG [NP-30] | > 80 | no significant adverse effects | – |
| VKLSCAY [NP-B, VKLSCAY] | – | – | viability [1]: > 80%; toxic effects on viability of mucosal epithelial tissue, LDH assay [2]: no significant toxic effects |
| VASGQKREMG [NP-29] | – | – | viability [1]: > 80%; toxic effects on viability of mucosal epithelial tissue, LDH assay [2]: no significant adverse effects |
| ALCNQFYTP [NP-25] | > 80 | no significant toxic effects | – |
| GSLYGSQIY [NP-23] | > 80 | no significant toxic effects | – |
| VVPEAQKREM [NP-33] | > 80 | no significant adverse effects | – |
| GVNPTAQSS [NP-22] | > 80 | no significant toxic effects | – |
| NTIIRDFYNP [NP-10] | > 80 | no significant adverse effects | – |
| 9-desglycinamide, 8-arginine vasopressin [DGAVP] | – | – | increase of bioavailability [4]: 3-5 fold |
| CC[C@H](C)[C@H](N)C(=O)N[C@H](C(=O)N[C@@H](C)C(=O)N[C@@H](CO)C(=O)O)[C@@H](C)O [NP-D, ITAS] (H-ITAS-OH) | > 80 | no significant toxic effects | – |
| GFSLGLWMEC [NP-42] | > 80 | no significant adverse effects | – |
| CC(C)CC(N)B(O)O (centres unmarked) [boro-leucine] | – | – | effectiveness in enzyme inhibition relative to bestatin [5]: more than 100 times; effectiveness in enzyme inhibition relative to puromycin [5]: more than 1000 times |
| CCN(CC)/[N+]([O-])=N/O.CCNCC [diethylamine/NO] | – | – | rate (time) of NO release [6]: < 3 min |
| CC[C@H](C)[C@H](NC(=O)[C@H](CCCNC(=N)N)NC(=O)[C@@H](N)C(C)C)C(=O)N1CCC[C@H]1C(=O)O [NP-A, VRIP] (H-VRIP-OH) | > 80 | no significant toxic effects | – |
| YLYHYCVVD [NP-26] | > 80 | no significant toxic effects | – |
| NCCN(CCN)/[N+]([O-])=N/O [diethylenetriamine/NO] | – | – | rate (time) of NO release [6]: approximately 20 hours |
| MTPVNARYEF [NP-28] | > 80 | no significant adverse effects | – |
| VPVSQKYELG [NP-32] | > 80 | no significant adverse effects | – |
| CC(C)[C@H](NC(=O)[C@@H](N)CO)C(=O)N[C@H](C(=O)N[C@@H](CCCNC(=N)N)C(=O)O)[C@@H](C)O [NP-E, SVTR] (H-SVTR-OH) | > 80 | no significant toxic effects | – |
| 2-alkyl-4-hydroxyquinolines [pyo compound] | – | – | concentration producing ciliostasis / inhibiting ciliary motility [7]: 50 µg/mL |
| AATGLYVDQ [NP-24] | > 80 | no significant toxic effects | – |
| YAGDNIVTAQ [NP-17] | – | – | viability [1]: > 80%; toxic effects on viability of mucosal epithelial tissue, LDH assay [2]: no significant adverse effects |
| GFSSPRVEW [NP-21] | – | – | viability [1]: > 80%; toxic effects on viability of mucosal epithelial tissue, LDH assay [2]: no significant toxic effects |
| TGITFKSVT [NP-C] | – | – | viability [1]: > 80%; toxic effects on viability of mucosal epithelial tissue, LDH assay [2]: no significant toxic effects |
| GILRDFYSPL [NP-27] | > 80 | no significant adverse effects | – |
